Here are results for 9 compounds from patent US10512634B2, “Benzimidazole derivates useful as inhibitors of mammalian histone deacetylase activity” (KANCERA AB, priority 2015, dated 2019).

For one assay, the target named is HDAC6 (Homo sapiens (Human), UniProt Q9UBN7). The assay is described as follows: HDAC in vitro enzymatic assay (fluorescence). The assay is classed as biochemical. On the procedure: Biological Tests Method for Measurement of Enzymatic Activity of HDACs Materials & Methods
All Examples were tested in HDAC1, 2, 3, 6 and 8 in vitro enzymatic assays. The assay principle is well known (Hauser et al. 2009, Bradner et al. 2010) and all necessary reagents like enzymes, substrates, developer and reference compounds are commercially available (see e.g. BPS Biosciences http://www.bpsbioscience.com/). A series of dilutions of the compounds were prepared with a top concentration of 200 μM (2 μM for HDAC6). The enzymatic reactions were conducted in a mixture containing assay buffer, bovine serum albumin, HDAC substrate, and a test compound. After enzymatic reaction, developer was added and after an additional incubation time, fluorescence intensity was measured at an excitation wavelength of 360 nm and an emission wavelength of 460 nm. A selection of the Examples were tested in a full HDAC panel containing HDAC1, 2, 3, 4, 5, 6, 7, 8, 9, 10 and 11 in vitro enzymatic assays. The tests were performed as above except that a series of dilutions of the compounds were prepared with a top concentration of 10 μM for all HDACs.

A further assay concerns AMO-1 (plasmacytom). The assay is described as follows: CellTiter-Blue cell viability assay. The class given is cell-based. The conditions noted are these: Homo sapiens, AMO1, 72 h, read-out: IC50 AMO-1 (cell viability). On the procedure: (§1) Method for Measurement of Cell Viability
(§2) The CellTiter-Blue® Cell Viability Assay (Promega) provides a homogeneous, fluorometric method for estimating the number of viable cells present in multi-well plates. The assay uses the indicator dye resazurin to measure the metabolic capacity of cells. Viable cells retain the ability to reduce resazurin into resorufin, which is highly fluorescent.
(§3) Stock solutions (10 mM in DMSO) of compounds were serially diluted 1:2 in 11 concentrations. 50 nL/well (10 mM compound stock in DMSO) was acoustically dispensed in 384-well assay plates with an acoustic dispenser (EDC Biosystems ATS-100AV). Final starting concentration in the assay was 20 μM (0.2% DMSO) for test compounds. […] After 72 hours, Celltiter Blue reagent (Promega #G8081) was diluted 1:10 with PBS and then added to wells (5 μL/well). The plates were incubated for 2 hours following addition of reagent. […] Results were calculated as % cell viability compared to background (cells treated with 0.2% DMSO).

Assay [1] concerns PBMC (peripheral blood mononuclear cells from healthy donors). The experiment in a line: CellTiter-Blue cell viability assay. The conditions noted are these: PBMC, 72 h, read-out: IC50 healthy PBMC (cell viability). The class given is cell-based. The protocol: as §1, §2, §3
(In general: Alamar Blue is a resazurin reagent that responds to reducing activity.)

In a further assay the test system is PaCa2 (pancreatic). The experiment in a line: CellTiter-Blue cell viability assay. The assay is classed as cell-based. To be noted: PaCa-2, 72 h, read-out: IC50 PaCa2 (cell viability). The protocol: as §1, §2, §3
Another assay relates to U266 (multiple myelom). The assay is described as follows: CellTiter-Blue cell viability assay. The class given is cell-based. The conditions noted are these: Homo sapiens, U-266, 72 h, read-out: IC50 U266 (cell viability). The protocol:
as §1, §2, §3

The next assay has as its target HDAC1 (Homo sapiens (Human), UniProt Q13547). The experiment in a line: HDAC in vitro enzymatic assay (fluorescence).
The next assay addresses HDAC2 (Homo sapiens (Human), UniProt Q92769). The experiment in a line: HDAC in vitro enzymatic assay (fluorescence). The conditions noted are these: read-out: IC50 HDAC2.
Another assay deals with HDAC3 (Homo sapiens (Human), UniProt O15379). The assay is described as follows: HDAC in vitro enzymatic assay (fluorescence). The conditions noted are these: read-out: IC50 HDAC3.
Chain of HDAC3 (O15379 whole entry): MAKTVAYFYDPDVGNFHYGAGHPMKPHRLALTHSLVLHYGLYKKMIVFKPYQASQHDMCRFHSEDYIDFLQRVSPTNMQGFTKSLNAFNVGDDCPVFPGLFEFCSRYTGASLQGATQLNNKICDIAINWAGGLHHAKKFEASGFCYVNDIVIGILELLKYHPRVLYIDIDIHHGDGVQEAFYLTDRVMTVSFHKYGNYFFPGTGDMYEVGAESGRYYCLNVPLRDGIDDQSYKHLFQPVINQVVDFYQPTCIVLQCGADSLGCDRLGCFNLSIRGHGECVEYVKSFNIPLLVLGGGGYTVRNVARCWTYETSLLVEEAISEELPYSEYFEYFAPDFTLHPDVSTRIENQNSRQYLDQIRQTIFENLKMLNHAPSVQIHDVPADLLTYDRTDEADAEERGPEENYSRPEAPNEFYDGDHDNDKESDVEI
Chain of HDAC3 (Q9Y618 395-489 partner): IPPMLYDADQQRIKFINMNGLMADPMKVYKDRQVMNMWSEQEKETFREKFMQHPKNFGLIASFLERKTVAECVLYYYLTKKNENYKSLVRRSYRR
In another assay the target is HDAC8 (Homo sapiens (Human), UniProt Q9BY41). The assay is described as follows: HDAC in vitro enzymatic assay (fluorescence). The conditions noted are these: read-out: IC50 HDAC8.
Chain of HDAC8 (Q9BY41 whole entry): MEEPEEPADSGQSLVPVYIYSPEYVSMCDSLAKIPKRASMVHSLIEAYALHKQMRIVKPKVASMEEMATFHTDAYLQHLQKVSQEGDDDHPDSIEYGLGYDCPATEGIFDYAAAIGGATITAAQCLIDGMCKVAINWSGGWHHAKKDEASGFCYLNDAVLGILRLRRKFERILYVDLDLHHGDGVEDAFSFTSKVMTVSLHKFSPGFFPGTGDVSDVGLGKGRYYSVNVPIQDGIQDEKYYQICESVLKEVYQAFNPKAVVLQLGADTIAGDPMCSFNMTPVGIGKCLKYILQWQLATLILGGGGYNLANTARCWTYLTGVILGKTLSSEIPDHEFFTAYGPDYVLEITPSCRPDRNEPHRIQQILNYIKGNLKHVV
The next assay has as its target HDAC4 (Homo sapiens (Human), UniProt P56524). The assay is described as follows: HDAC in vitro enzymatic assay (full HDAC panel). The conditions noted are these: read-out: IC50 HDAC4, top concentration 10 μM.
In the next assay the target is HDAC5 (Homo sapiens (Human), UniProt Q9UQL6). The experiment in a line: HDAC in vitro enzymatic assay (full HDAC panel). To be noted: read-out: IC50 HDAC5, top concentration 10 μM.
Another assay has as its target HDAC7 (Homo sapiens (Human), UniProt Q8WUI4). The experiment in a line: HDAC in vitro enzymatic assay (full HDAC panel). To be noted: read-out: IC50 HDAC7, top concentration 10 μM.
The next assay addresses HDAC9 (Homo sapiens (Human), UniProt Q9UKV0). The experiment in a line: HDAC in vitro enzymatic assay (full HDAC panel). The conditions noted are these: read-out: IC50 HDAC9, top concentration 10 μM.
For a further assay, the target named is HDAC10 (Homo sapiens (Human), UniProt Q969S8). The assay is described as follows: HDAC in vitro enzymatic assay (full HDAC panel). To be noted: read-out: IC50 HDAC10, top concentration 10 μM.
The target in a further assay is HDAC11 (Homo sapiens (Human), UniProt Q96DB2). The assay is described as follows: HDAC in vitro enzymatic assay (full HDAC panel). The conditions noted are these: read-out: IC50 HDAC11, top concentration 10 μM.
[2] abbreviates: selectivity profiling, top concentration 2 μM, read-out: IC50 HDAC6.
Where [3] appears, read: top concentration 2 μM, read-out: IC50 values for inhibition of HDAC6.
Where [4] appears, read: read-out: IC50 HDAC1, selectivity profiling, top concentration 200 μM.
Where [5] appears, read: selectivity profiling, top concentration 200 μM.
[6] abbreviates: full HDAC panel, top concentration 10 μM, read-out: IC50 HDAC6.
Setting [7] is: read-out: IC50 HDAC 1, full HDAC panel, top concentration 10 μM.
Setting [8] is: full HDAC panel, top concentration 10 μM.

Structures can show the parent of a compound that is named as a salt. Where two headings read alike, the source gives them in different places.

Chain of HDAC1 (Q13547 whole entry): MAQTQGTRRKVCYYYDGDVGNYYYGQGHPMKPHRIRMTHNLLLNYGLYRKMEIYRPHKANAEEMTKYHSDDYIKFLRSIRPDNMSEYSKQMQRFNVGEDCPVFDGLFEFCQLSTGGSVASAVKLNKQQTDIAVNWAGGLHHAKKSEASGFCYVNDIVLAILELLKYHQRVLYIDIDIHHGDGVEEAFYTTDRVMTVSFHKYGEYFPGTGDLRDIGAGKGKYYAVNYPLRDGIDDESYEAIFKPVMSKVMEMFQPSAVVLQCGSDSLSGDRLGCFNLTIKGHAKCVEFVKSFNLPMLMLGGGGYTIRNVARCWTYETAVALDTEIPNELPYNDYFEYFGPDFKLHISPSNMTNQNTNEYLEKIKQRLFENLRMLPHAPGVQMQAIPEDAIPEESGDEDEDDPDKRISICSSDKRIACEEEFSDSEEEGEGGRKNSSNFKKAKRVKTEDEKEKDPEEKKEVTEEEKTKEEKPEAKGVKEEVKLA
Chain of HDAC2 (Q92769 whole entry): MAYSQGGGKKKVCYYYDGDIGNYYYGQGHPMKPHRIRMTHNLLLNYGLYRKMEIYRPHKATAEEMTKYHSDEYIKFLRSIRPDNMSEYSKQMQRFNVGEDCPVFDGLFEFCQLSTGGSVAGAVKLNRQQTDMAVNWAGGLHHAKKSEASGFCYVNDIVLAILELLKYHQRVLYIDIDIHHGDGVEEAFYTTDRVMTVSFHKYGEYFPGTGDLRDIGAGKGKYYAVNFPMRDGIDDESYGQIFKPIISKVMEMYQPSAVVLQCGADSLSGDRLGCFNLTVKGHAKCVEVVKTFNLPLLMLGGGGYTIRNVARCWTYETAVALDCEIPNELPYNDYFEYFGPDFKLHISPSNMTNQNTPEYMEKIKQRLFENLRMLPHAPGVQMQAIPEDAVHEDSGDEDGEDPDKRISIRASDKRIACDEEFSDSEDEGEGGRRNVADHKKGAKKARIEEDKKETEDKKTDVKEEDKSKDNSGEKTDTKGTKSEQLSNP
Chain of HDAC4 (P56524 whole entry): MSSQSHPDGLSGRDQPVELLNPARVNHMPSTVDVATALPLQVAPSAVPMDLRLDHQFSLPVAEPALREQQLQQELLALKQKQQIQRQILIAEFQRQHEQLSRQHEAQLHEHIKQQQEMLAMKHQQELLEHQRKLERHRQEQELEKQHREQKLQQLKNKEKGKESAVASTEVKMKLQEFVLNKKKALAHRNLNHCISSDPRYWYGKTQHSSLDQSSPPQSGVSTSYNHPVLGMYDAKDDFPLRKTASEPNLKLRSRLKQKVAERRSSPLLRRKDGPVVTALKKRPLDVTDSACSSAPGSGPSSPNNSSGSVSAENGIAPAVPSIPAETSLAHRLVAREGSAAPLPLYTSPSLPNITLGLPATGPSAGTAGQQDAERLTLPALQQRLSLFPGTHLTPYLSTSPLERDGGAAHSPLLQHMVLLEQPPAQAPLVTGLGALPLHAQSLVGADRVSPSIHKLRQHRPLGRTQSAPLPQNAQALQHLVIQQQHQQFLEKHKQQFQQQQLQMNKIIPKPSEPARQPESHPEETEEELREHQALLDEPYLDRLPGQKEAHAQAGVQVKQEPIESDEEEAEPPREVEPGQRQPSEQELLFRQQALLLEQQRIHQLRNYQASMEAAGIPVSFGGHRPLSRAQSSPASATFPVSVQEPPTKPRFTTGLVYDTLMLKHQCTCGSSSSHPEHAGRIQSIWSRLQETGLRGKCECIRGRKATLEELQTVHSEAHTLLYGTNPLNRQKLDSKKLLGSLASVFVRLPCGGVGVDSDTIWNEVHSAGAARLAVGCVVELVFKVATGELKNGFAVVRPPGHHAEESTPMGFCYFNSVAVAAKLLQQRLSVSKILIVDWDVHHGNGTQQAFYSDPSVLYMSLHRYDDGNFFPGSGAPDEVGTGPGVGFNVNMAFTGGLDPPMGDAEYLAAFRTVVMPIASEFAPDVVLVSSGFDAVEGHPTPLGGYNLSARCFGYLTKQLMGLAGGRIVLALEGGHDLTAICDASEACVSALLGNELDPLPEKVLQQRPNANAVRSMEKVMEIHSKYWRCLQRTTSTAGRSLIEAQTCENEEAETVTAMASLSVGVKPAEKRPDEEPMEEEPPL
Chain of HDAC7 (Q8WUI4 whole entry): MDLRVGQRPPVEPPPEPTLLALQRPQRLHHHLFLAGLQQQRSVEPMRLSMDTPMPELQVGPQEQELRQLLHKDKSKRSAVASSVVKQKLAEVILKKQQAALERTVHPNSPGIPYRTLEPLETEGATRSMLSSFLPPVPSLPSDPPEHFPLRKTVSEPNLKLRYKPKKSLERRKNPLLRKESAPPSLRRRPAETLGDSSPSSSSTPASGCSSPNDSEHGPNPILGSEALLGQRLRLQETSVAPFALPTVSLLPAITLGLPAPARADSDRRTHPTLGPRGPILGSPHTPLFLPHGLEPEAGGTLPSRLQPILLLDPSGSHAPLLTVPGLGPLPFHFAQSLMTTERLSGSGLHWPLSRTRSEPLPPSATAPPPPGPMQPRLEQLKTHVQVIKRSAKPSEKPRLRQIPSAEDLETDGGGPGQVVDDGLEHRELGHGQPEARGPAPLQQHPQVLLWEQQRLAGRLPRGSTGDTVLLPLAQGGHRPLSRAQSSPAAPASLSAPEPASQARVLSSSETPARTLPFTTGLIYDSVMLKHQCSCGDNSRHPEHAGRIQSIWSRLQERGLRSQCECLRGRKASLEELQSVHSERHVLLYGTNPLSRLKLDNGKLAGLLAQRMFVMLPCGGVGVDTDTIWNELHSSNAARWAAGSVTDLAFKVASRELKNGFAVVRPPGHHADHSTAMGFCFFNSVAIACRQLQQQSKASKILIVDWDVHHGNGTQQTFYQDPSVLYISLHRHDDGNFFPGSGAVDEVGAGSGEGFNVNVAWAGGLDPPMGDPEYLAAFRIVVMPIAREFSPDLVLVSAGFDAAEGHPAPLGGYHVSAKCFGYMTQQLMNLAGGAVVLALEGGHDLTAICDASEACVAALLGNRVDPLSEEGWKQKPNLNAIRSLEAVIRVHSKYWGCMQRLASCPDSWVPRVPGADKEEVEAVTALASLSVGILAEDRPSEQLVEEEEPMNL
Chain of HDAC9 (Q9UKV0 whole entry): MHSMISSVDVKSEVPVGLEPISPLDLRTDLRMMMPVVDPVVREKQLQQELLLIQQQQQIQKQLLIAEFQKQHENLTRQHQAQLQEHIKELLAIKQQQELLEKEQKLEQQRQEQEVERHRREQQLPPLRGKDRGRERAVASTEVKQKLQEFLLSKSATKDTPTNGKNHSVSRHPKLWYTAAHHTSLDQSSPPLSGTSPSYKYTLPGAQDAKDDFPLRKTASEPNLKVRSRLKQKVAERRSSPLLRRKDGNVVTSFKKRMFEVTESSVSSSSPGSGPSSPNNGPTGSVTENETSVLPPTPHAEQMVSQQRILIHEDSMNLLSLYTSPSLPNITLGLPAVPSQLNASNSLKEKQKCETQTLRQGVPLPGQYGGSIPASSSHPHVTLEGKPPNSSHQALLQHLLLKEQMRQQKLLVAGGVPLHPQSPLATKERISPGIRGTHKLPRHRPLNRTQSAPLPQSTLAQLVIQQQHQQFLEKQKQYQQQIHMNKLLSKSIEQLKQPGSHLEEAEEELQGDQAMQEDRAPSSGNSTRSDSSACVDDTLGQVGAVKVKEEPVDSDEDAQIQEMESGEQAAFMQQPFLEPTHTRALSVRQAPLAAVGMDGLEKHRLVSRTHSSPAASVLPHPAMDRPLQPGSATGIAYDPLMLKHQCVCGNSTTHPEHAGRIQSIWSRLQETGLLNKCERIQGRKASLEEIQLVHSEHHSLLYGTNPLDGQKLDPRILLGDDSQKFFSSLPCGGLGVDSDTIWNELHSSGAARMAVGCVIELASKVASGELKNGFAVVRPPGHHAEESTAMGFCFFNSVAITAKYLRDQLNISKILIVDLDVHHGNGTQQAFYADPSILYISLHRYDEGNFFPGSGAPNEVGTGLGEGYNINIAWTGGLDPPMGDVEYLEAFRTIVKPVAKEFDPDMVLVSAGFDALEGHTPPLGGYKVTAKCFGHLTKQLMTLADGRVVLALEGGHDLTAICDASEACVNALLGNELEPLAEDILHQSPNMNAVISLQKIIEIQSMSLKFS

On to `O=C(NO)c1ccc2nc(-c3ccc(-c4ccccc4)cc3)[nH]c2c1` [Example 6, 2-biphenyl-4-yl-N-hydroxy-1H-benzimidazole-6-carboxamide], for which the IC50 on HDAC6 (setting [2]) was 15 nM; on HDAC6 (setting [3]) it was 15 nM; with AMO-1 (plasmacytom), 1700 nM; in [1] it was above 20000 nM; with PaCa2 (pancreatic), 410 nM; in the assay on U266 (multiple myelom) it was 540 nM. The IC50 on HDAC1 (setting [4]) is 51000 nM; at HDAC2 (setting [5]) it was 160000 nM; on HDAC3 (setting [5]) it was 2100 nM; at HDAC8 (setting [5]), 470 nM.
Regarding `Cc1cc(O)cc(C)c1-c1nc2ccc(C(=O)NO)cc2[nH]1` [Example 15, N-hydroxy-2-(4-hydroxy-2,6-dimethylphenyl)-1H-benzimidazole-6-carboxamide], the IC50 was 69 nM on HDAC6 (setting [6]); 69 nM at HDAC6 (setting [3]); above 10000 nM on HDAC1 (setting [7]); above 10000 nM at HDAC2 (setting [8]); 8200 nM at HDAC3 (setting [8]); above 10000 nM on HDAC8 (setting [8]). Moreover, the IC50 is above 10000 nM at HDAC4; above 10000 nM on HDAC5; 3000 nM at HDAC7; 6900 nM at HDAC9; above 10000 nM on HDAC10; above 10000 nM on HDAC11.
On to `O=C(NO)c1ccc2nc(-c3ccccc3C(F)(F)F)[nH]c2c1` [Example 18, N-hydroxy-2-[2-(trifluoromethyl)phenyl]-1H-benzimidazole-6-carboxamide], for which the IC50 at HDAC6 (setting [6]) was 77 nM; on HDAC6 (setting [3]), 77 nM; on HDAC1 (setting [7]) it was above 10000 nM; at HDAC2 (setting [8]), above 10000 nM; on HDAC3 (setting [8]), 3000 nM; on HDAC8 (setting [8]) it was above 10000 nM. Further, the IC50 is above 10000 nM on HDAC4; above 10000 nM on HDAC5; 9200 nM at HDAC7; above 10000 nM at HDAC9; 8600 nM at HDAC10; above 10000 nM on HDAC11.
Consider `O=C(NO)c1ccc2nc(-c3cccc(Br)c3)[nH]c2c1` [Example 21, 2-(3-bromophenyl)-N-hydroxy-1H-benzimidazole-6-carboxamide], for which the IC50 on HDAC6 (setting [2]) was 12 nM; on HDAC6 (setting [3]), 12 nM; in the assay with AMO-1 (plasmacytom), 7000 nM; in [1], above 20000 nM; with PaCa2 (pancreatic), 4300 nM; with U266 (multiple myelom) it was 7800 nM. For the same compound, the IC50 on HDAC1 (setting [4]) turned out to be 1500 nM; at HDAC2 (setting [5]), 9300 nM; on HDAC3 (setting [5]), 780 nM; on HDAC8 (setting [5]) it was 62 nM.
With `CC(C)c1ccc(-c2nc3ccc(C(=O)NO)cc3[nH]2)cc1` [Example 50, N-hydroxy-2-[4-(1-methylethyl)phenyl]-1H-benzimidazole-6-carboxamide], the IC50 at HDAC6 (setting [2]) is 14 nM; on HDAC6 (setting [3]), 14 nM; in the assay with AMO-1 (plasmacytom), 2000 nM; in assay [1] it was above 20000 nM; in the assay with PaCa2 (pancreatic), 290 nM; in the assay with U266 (multiple myelom) it was 580 nM. The IC50 on HDAC1 (setting [4]) stood at 3300 nM; on HDAC2 (setting [5]), 32000 nM; on HDAC3 (setting [5]), 3400 nM; on HDAC8 (setting [5]) it was 420 nM.
In the case of `CCCCc1ccc(-c2nc3ccc(C(=O)NO)cc3[nH]2)cc1` [Example 162, 2-(4-butylphenyl)-N-hydroxy-1H-benzimidazole-6-carboxamide], the IC50 at HDAC6 (setting [2]) was 31 nM; at HDAC6 (setting [3]), 31 nM; in the assay on AMO-1 (plasmacytom), 3700 nM; in assay [1], above 20000 nM; in the assay on PaCa2 (pancreatic) it was 820 nM; in the assay with U266 (multiple myelom), 740 nM. Moreover, the IC50 on HDAC1 (setting [4]) came out at 7700 nM; at HDAC2 (setting [5]), 94000 nM; on HDAC3 (setting [5]) it was 11000 nM; at HDAC8 (setting [5]) it was 190 nM.
Take `O=C(NO)c1ccc2nc(-c3ccc(-c4ccc(CN5CCOCC5)cc4)cc3)[nH]c2c1` [Example 190, N-hydroxy-2-[4′-(morpholin-4-ylmethyl)biphenyl-4-yl]-1H-benzimidazole-6-carboxamide trifluoroacetate]: the IC50 on HDAC6 (setting [2]) was 21 nM; at HDAC6 (setting [3]), 21 nM; in the assay on AMO-1 (plasmacytom), 8100 nM; in assay [1], above 20000 nM; with PaCa2 (pancreatic), 2300 nM; in the assay with U266 (multiple myelom), 3900 nM. For the same compound, the IC50 was 4000 nM on HDAC1 (setting [4]), 13000 nM at HDAC2 (setting [5]), 910 nM at HDAC3 (setting [5]) and 80 nM at HDAC8 (setting [5]).
With `CC(C)c1ccc(-c2nc3cc(C(=O)NO)ccc3n2C)cc1` [Example 223, N-hydroxy-1-methyl-2-[4-(1-methylethyl)phenyl]-1H-benzimidazole-5-carboxamide], the IC50 is 28 nM at HDAC6 (setting [2]); 28 nM on HDAC6 (setting [3]); 18000 nM in the assay on AMO-1 (plasmacytom); above 20000 nM in assay [1]; 5400 nM with PaCa2 (pancreatic); 8200 nM with U266 (multiple myelom). Moreover, the IC50 at HDAC1 (setting [4]) turned out to be 1600 nM; at HDAC2 (setting [5]), 60000 nM; on HDAC3 (setting [5]) it was 4500 nM; at HDAC8 (setting [5]), 84 nM.
Take `Cn1c(-c2ccc(-c3ccccc3)cc2)nc2cc(C(=O)NO)ccc21` [Example 225, 2-biphenyl-4-yl-N-hydroxy-1-methyl-1H-benzimidazole-5-carboxamide]: the IC50 at HDAC6 (setting [2]) is 3.6 nM; on HDAC6 (setting [3]), 3.6 nM; in the assay on AMO-1 (plasmacytom) it was above 20000 nM; in assay [1], above 20000 nM; in the assay on PaCa2 (pancreatic) it was 1000 nM; in the assay with U266 (multiple myelom), 340 nM. In addition, the IC50 at HDAC1 (setting [4]) is 326 nM; on HDAC2 (setting [5]), above 200000 nM; on HDAC3 (setting [5]), above 200000 nM; at HDAC8 (setting [5]), 74 nM.
